The NIST ThermoML archive (doi:10.1021/je900691n)
± gives the expanded uncertainty stated by the source.

Assay: xn = mol fraction of the nth substance listed
Settings: Liquid, Pycnometric method

Question: Which mass density (313.15 K, 12790 kPa, x1 = 0.1484) does the source give for `COC(=O)OC` [dimethyl carbonate] + O=C=O here?
Answer: 951 ± 4 kg/m3

Question: What about the mass density (313.15 K, 12900 kPa, x1 = 0.0242) of the same molecule?
Answer: 816 ± 4 kg/m3

Question: What about the mass density (313.15 K, 12950 kPa, x1 = 0.0481) of the same molecule?
Answer: 856 ± 4 kg/m3

Question: And the mass density (313.15 K, 13250 kPa, x1 = 0.118)?
Answer: 940 ± 4 kg/m3

Question: And the mass density (313.15 K, 13270 kPa, x1 = 0.0242)?
Answer: 823 ± 4 kg/m3

Question: And the mass density (313.15 K, 13310 kPa, x1 = 0.1484)?
Answer: 955 ± 4 kg/m3

Question: What about the mass density (313.15 K, 13450 kPa, x1 = 0.0481) of the same molecule?
Answer: 863 ± 4 kg/m3

Question: And the mass density (313.15 K, 13580 kPa, x1 = 0.086)?
Answer: 911 ± 4 kg/m3

Question: What about the mass density (313.15 K, 13640 kPa, x1 = 0.0242) of the same molecule?
Answer: 828 ± 4 kg/m3

Question: What about the mass density (313.15 K, 13730 kPa, x1 = 0.118) of the same molecule?
Answer: 943 ± 4 kg/m3

Question: And the mass density (313.15 K, 13790 kPa, x1 = 0.1484)?
Answer: 957 ± 4 kg/m3

Question: What about the mass density (313.15 K, 13960 kPa, x1 = 0.0242) of the same molecule?
Answer: 833 ± 4 kg/m3

Question: And the mass density (313.15 K, 13980 kPa, x1 = 0.0481)?
Answer: 869 ± 4 kg/m3

Question: What about the mass density (313.15 K, 14120 kPa, x1 = 0.086) of the same molecule?
Answer: 915 ± 4 kg/m3

Question: And the mass density (313.15 K, 14140 kPa, x1 = 0.0242)?
Answer: 836 ± 4 kg/m3

Question: And the mass density (313.15 K, 14270 kPa, x1 = 0.118)?
Answer: 947 ± 4 kg/m3

Question: And the mass density (313.15 K, 14430 kPa, x1 = 0.1484)?
Answer: 961 ± 4 kg/m3

Question: What about the mass density (313.15 K, 14560 kPa, x1 = 0.0242) of the same molecule?
Answer: 842 ± 4 kg/m3

Question: What about the mass density (313.15 K, 14620 kPa, x1 = 0.0481) of the same molecule?
Answer: 877 ± 4 kg/m3

Question: What about the mass density (313.15 K, 14750 kPa, x1 = 0.086) of the same molecule?
Answer: 920 ± 4 kg/m3

Question: What about the mass density (313.15 K, 14950 kPa, x1 = 0.0242) of the same molecule?
Answer: 847 ± 4 kg/m3

Question: What about the mass density (313.15 K, 15100 kPa, x1 = 0.1484) of the same molecule?
Answer: 965 ± 4 kg/m3

Question: And the mass density (313.15 K, 15210 kPa, x1 = 0.0481)?
Answer: 882 ± 4 kg/m3

Question: And the mass density (313.15 K, 15220 kPa, x1 = 0.068)?
Answer: 924 ± 4 kg/m3

Question: And the mass density (313.15 K, 15230 kPa, x1 = 0.0242)?
Answer: 851 ± 4 kg/m3

Question: What about the mass density (313.15 K, 15650 kPa, x1 = 0.1484) of the same molecule?
Answer: 968 ± 4 kg/m3

Question: What about the mass density (313.15 K, 15900 kPa, x1 = 0.0481) of the same molecule?
Answer: 890 ± 4 kg/m3

Question: What about the mass density (313.15 K, 15930 kPa, x1 = 0.068) of the same molecule?
Answer: 930 ± 4 kg/m3

Question: What about the mass density (313.15 K, 16400 kPa, x1 = 0.068) of the same molecule?
Answer: 933 ± 4 kg/m3

Question: What about the mass density (313.15 K, 16470 kPa, x1 = 0.1484) of the same molecule?
Answer: 972 ± 4 kg/m3

Question: And the mass density (317.85 K, 8660 kPa, x1 = 0.0242)?
Answer: 476 ± 4 kg/m3

Question: And the mass density (317.85 K, 8710 kPa, x1 = 0.0242)?
Answer: 485 ± 4 kg/m3

Question: What about the mass density (317.85 K, 8720 kPa, x1 = 0.0242) of the same molecule?
Answer: 490 ± 4 kg/m3

Question: And the mass density (317.85 K, 8750 kPa, x1 = 0.0242)?
Answer: 498 ± 4 kg/m3

Question: What about the mass density (317.85 K, 8780 kPa, x1 = 0.0242) of the same molecule?
Answer: 506 ± 4 kg/m3

Question: What about the mass density (317.85 K, 8820 kPa, x1 = 0.0242) of the same molecule?
Answer: 517 ± 4 kg/m3

Question: And the mass density (317.85 K, 8880 kPa, x1 = 0.0242)?
Answer: 529 ± 4 kg/m3

Question: What about the mass density (317.85 K, 8930 kPa, x1 = 0.0242) of the same molecule?
Answer: 542 ± 4 kg/m3

Question: And the mass density (317.85 K, 9000 kPa, x1 = 0.0242)?
Answer: 555 ± 4 kg/m3

Question: What about the mass density (317.85 K, 9070 kPa, x1 = 0.0242) of the same molecule?
Answer: 569 ± 4 kg/m3

Question: And the mass density (317.85 K, 9150 kPa, x1 = 0.0242)?
Answer: 583 ± 4 kg/m3

Question: What about the mass density (317.85 K, 9250 kPa, x1 = 0.0242) of the same molecule?
Answer: 599 ± 4 kg/m3

Question: What about the mass density (317.85 K, 9350 kPa, x1 = 0.0242) of the same molecule?
Answer: 611 ± 4 kg/m3

Question: And the mass density (317.85 K, 9500 kPa, x1 = 0.0242)?
Answer: 628 ± 4 kg/m3

Question: What about the mass density (317.85 K, 9710 kPa, x1 = 0.0242) of the same molecule?
Answer: 646 ± 4 kg/m3

Question: What about the mass density (317.85 K, 9910 kPa, x1 = 0.0242) of the same molecule?
Answer: 663 ± 4 kg/m3

Question: What about the mass density (318.15 K, 7340 kPa, x1 = 0.1484) of the same molecule?
Answer: 884 ± 4 kg/m3

Question: What about the mass density (318.15 K, 7630 kPa, x1 = 0.118) of the same molecule?
Answer: 856 ± 4 kg/m3

Question: What about the mass density (318.15 K, 7820 kPa, x1 = 0.1484) of the same molecule?
Answer: 889 ± 4 kg/m3

Question: And the mass density (318.15 K, 7850 kPa, x1 = 0.118)?
Answer: 859 ± 4 kg/m3

Question: And the mass density (318.15 K, 8020 kPa, x1 = 0.086)?
Answer: 802 ± 4 kg/m3

Question: And the mass density (318.15 K, 8190 kPa, x1 = 0.118)?
Answer: 864 ± 4 kg/m3

Question: What about the mass density (318.15 K, 8270 kPa, x1 = 0.1484) of the same molecule?
Answer: 894 ± 4 kg/m3

Question: And the mass density (318.15 K, 8410 kPa, x1 = 0.086)?
Answer: 812 ± 4 kg/m3

Question: And the mass density (318.15 K, 8550 kPa, x1 = 0.0481)?
Answer: 683 ± 4 kg/m3

Question: And the mass density (318.15 K, 8610 kPa, x1 = 0.118)?
Answer: 870 ± 4 kg/m3

Question: And the mass density (318.15 K, 8700 kPa, x1 = 0.0481)?
Answer: 693 ± 4 kg/m3

Question: What about the mass density (318.15 K, 8780 kPa, x1 = 0.1484) of the same molecule?
Answer: 899 ± 4 kg/m3

Question: And the mass density (318.15 K, 8830 kPa, x1 = 0.086)?
Answer: 820 ± 4 kg/m3

Question: And the mass density (318.15 K, 8880 kPa, x1 = 0.0481)?
Answer: 706 ± 4 kg/m3

Question: What about the mass density (318.15 K, 9130 kPa, x1 = 0.118) of the same molecule?
Answer: 876 ± 4 kg/m3

Question: What about the mass density (318.15 K, 9140 kPa, x1 = 0.0481) of the same molecule?
Answer: 721 ± 4 kg/m3

Question: What about the mass density (318.15 K, 9160 kPa, x1 = 0.086) of the same molecule?
Answer: 827 ± 4 kg/m3

Question: And the mass density (318.15 K, 9300 kPa, x1 = 0.1484)?
Answer: 904 ± 4 kg/m3

Question: What about the mass density (318.15 K, 9450 kPa, x1 = 0.0481) of the same molecule?
Answer: 735 ± 4 kg/m3

Question: What about the mass density (318.15 K, 9580 kPa, x1 = 0.118) of the same molecule?
Answer: 882 ± 4 kg/m3

Question: What about the mass density (318.15 K, 9760 kPa, x1 = 0.0481) of the same molecule?
Answer: 748 ± 4 kg/m3

Question: What about the mass density (318.15 K, 9800 kPa, x1 = 0.1484) of the same molecule?
Answer: 908 ± 4 kg/m3

Question: And the mass density (318.15 K, 9810 kPa, x1 = 0.086)?
Answer: 838 ± 4 kg/m3

Question: What about the mass density (318.15 K, 10180 kPa, x1 = 0.118) of the same molecule?
Answer: 889 ± 4 kg/m3

Question: What about the mass density (318.15 K, 10200 kPa, x1 = 0.0481) of the same molecule?
Answer: 758 ± 4 kg/m3

Question: And the mass density (318.15 K, 10260 kPa, x1 = 0.086)?
Answer: 845 ± 4 kg/m3
